# From patent US8710050B2, “Di and tri- substituted oxathiazine derivatives, method for the production, method for the production thereof, use thereof as medicine and drug containing said derivatives and use thereof” (Sanofi, priority 2011, dated 2014)
# Target: human 11β-HSD1 microsome fraction (Homo sapiens, UniProt P28845)
# Assay: Enzymatic 11beta-HSD1 test (SPA-based detection)
# Assay type: biochemical
# Details: [1,2-3H]-cortisone substrate, 0.25 mM NADPH, 37° C., 1 hour; read-out: IC50 (nM), Biological activity in nanomolar
# Protocol: Enzymatic 11beta-HSD1 Test:
# To measure the activity of the compounds, an SPA-based detection method (Solly et al. 2005) was employed. First of all, 20 μl of the human 11β-HSD1 microsome fraction (0.2 μg of protein), prepared in 50 mM HEPES, 0.1% BSA (w/v), were applied to a plate with 384 wells. The test compounds (0.09 μl) were applied to the assay plate in 100% DMSO. The reaction was started by addition of 20 μl of [1,2-^3H]-cortisone (0.1 μCi/[…]) in assay buffer comprising 25 mM HEPES, 100 mM KCl, 5 mM NaCl, 2 mM MgCl2 and 0.25 mM NADPH. The plate was agitated at 37° C. for 1 hour. At the same time, a stop solution comprising 20 mg/ml SPA-PVT beads, 1.6 mg/ml monoclonal cortisol antibody and 0.01 mM SSR110887 (inhibitor from the Biovitrium patent) in 50 mM HEPES, 1 M NaCl and 1 M KCl was stirred at room temperature. To stop the reaction, 25 μl of the stop solution were added to each well. The plate was agitated gently at room temperature for 1 further hour and then centrifuged at 500 gav for 1 min, in order that the SPA beads could settle out. The plate was then read in a Wallac-1450-Microbeta unit with a standard SPA program (counting time 1 min/well). The comparative compound was glycyrrhetinic acid.
# Protein and radioactive substrate were dispensed with a Biomek FX unit (Beckman Coulter) for handling liquids. The test compounds were added with a Cybi-Well equipped with a 90 nl pin tool (CyBio).
# Lit.: Solly S, Mundt S S, Zokian H J, Juy-Fang Ding G, Hermanowski-Vosatka A, Strulovici B and Zheng W. High-throughput screening of 11β-Hydroxysteroid dehydrogenase type 1 in scintillation proximity format. Assay Drug Dev Technol 2005; 3:377-384.
# Chain of human 11β-HSD1 microsome fraction (P28845 whole entry): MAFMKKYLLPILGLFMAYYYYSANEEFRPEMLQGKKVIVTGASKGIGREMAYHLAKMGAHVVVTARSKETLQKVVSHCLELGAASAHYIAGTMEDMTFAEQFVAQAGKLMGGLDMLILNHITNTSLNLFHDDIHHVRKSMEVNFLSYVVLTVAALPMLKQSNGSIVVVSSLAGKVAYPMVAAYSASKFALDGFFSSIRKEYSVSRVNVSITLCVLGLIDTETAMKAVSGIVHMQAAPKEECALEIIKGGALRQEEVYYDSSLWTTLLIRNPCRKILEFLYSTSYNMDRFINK
row,SMILES,IC50 [nM]
1,"O=S1(=O)CC2(CCC2)OC(N[C@@H](CCO)c2ccccc2)=N1 [Example 6, (S)-3-(8,8-Dioxo-5-oxa-8lambda6-thia-7-azaspiro[3.5]non-6-en-6-ylamino)-3-phenyl-propan-1-ol]",128
2,"O=S1(=O)CC2(CCC2)OC(NC2CCCCC2)=N1 [Example 2, Cyclohexyl-(8,8-dioxo-5-oxa-8lambda6-thia-7-azaspiro[3.5]non-6-en-6-yl)amine]",399
3,"O=S1(=O)CC2(CCCC2)OC(NC2CCCCC2)=N1 [Example 3, Cyclohexyl-(9,9-dioxo-6-oxa-9lambda6-thia-8-azaspiro[4.5]dec-7-en-7-yl)amine]",308
4,"CC1C(C)(C)OC(NC2CCCCC2)=NS1(=O)=O (centres unmarked) [Example 1, Cyclohexyl-(5,6,6-trimethyl-4,4-dioxo-5,6-dihydro-4H-4lambda6-[1,4,3]oxathiazin-2-yl) amine]",139
5,"CC1(C)CS(=O)(=O)N=C(N[C@@H](CCO)c2ccccc2)O1 [Example 5, (S)-3-(6,6-Dlmethyl-4,4-dioxo-5,6-dihydro-4H-4lambda6-[1,4,3]oxathiazin-2-ylamino)-3 phenylpropan-1-ol]",307
6,"O=S1(=O)CC2(CCCCC2)OC(NC2CCCCC2)=N1 [Example 4, Cyclohexyl-(4,4-dioxo-1-oxa-4lambda6-thia-3-azaspiro[5.5]undec-2-en-2-yl)amine]",300
7,"O=S1(=O)CC2(CCCC2)OC(N[C@@H](CCO)c2ccccc2)=N1 [Example 7, (S)-3-(9,9-Dioxo-6-oxa-9lambda6-thia-8-aza-spiro[4.5]dec-7-en-7-ylamino)-3-phenyl-propan-1-ol]",113
8,"O=S1(=O)CC2(CCCCC2)OC(N[C@@H](CCO)c2ccccc2)=N1 [Example 8, (S)-3-(4,4-Dioxo-1-oxa-4lambda6-thia-3-aza-spiro[5.5]undec-2-en-2-ylamino)-3-phenyl-propan-1-ol]",66
